Measurements published in patent EP4603105A1, “PHARMACEUTICAL COMPOSITION CONTAINING CYCLIC COMPOUND HAVING SELECTIVE KRAS INHIBITORY EFFECT AGAINST HRAS AND NRAS” (CHUGAI SEIYAKU KABUSHIKI KAISHA, priority 2022, dated 2024).

How the values were obtained:
HRAS wild-type protein = HRAS wild-type protein (Homo sapiens, UniProt P01112); experiment: Binding to HRAS by surface plasmon resonance (SPR), KD and KD ratio to KRAS; conditions: ratio of the KD value with respect to HRAS wild-type protein to the KD value with respect to KRAS
Outline: (§1)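 Captured GDP-RAS (~100–300 RU) was exposed to increasing compound concentrations, 75 s per step, in running buffer with 10 µM GDP, 10 mM MgCl2 and 4% DMSO at pH 7.4.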

[1] = biological target: GDP-bound NRAS wild-type protein (Homo sapiens, UniProt P01111); experiment: Binding to NRAS by surface plasmon resonance (SPR), KD and KD ratio to KRAS; conditions: ratio of the KD value with respect to GDP-bound NRAS wild-type protein to the KD value with respect to KRAS
Outline: as §1

[2] = system: human lung cancer strain NCI-H441; format: cell-based
Outline: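 Step one: dispense the test compound in serial DMSO dilutions. Step three: add the reagent and measure […].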

GDP-bound NRAS wild-type protein, sequence (P01111 whole entry): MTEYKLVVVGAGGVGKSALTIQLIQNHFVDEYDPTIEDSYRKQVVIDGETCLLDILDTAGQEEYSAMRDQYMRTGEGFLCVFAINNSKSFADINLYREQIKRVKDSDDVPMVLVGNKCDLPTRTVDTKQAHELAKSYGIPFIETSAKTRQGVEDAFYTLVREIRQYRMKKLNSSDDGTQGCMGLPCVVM
HRAS wild-type protein, sequence (P01112 whole entry): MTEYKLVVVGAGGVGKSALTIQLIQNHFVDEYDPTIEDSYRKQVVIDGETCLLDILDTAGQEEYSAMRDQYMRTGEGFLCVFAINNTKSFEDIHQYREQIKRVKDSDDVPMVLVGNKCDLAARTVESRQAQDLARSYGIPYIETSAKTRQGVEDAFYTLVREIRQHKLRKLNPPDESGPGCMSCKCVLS

| SMILES | IC50 [2] [nM] | HRAS /KRAS (HRAS wild-type protein) | NRAS /KRAS [1] |
| --- | --- | --- | --- |
| CCO[C@@H]1C[C@H]2C(=O)NC3(CC(C)(C)C3)C(=O)N(C)[C@@H](C(CC)CC)C(=O)N(C)[C@H](C(=O)N3CCCC3)CC(=O)N(C)[C@@H](CC)C(=O)N[C@@H]([C@@H](C)CC)C(=O)N(C)CC(=O)N(C)[C@H]3C/C=C\CCN(C3=O)[C@@H](Cc3ccc(C)cc3)C(=O)N(C)CC(=O)N[C@@H](CCc3cc(F)c(C(F)(F)F)c(F)c3)C(=O)N2C1 [PP2149] | 17.7 | A (a compound having 10 or more and less than 20 is denoted as A) | A (a compound having 10 or more and less than 20 is denoted as A) |
| CCO[C@@H]1C[C@H]2C(=O)NC3(CC(C)(C)C3)C(=O)N(C)[C@@H](C(CC)CC)C(=O)N(C)[C@H](C(=O)N(C)C)CC(=O)N(C)[C@@H](CC)C(=O)N[C@@H]([C@@H](C)CC)C(=O)N(C)CC(=O)N(C)[C@H]3C/C=C\CCN(C3=O)[C@@H](Cc3ccc(C)cc3)C(=O)N(C)CC(=O)N[C@@H](CCc3ccc(C(F)(F)F)c(Cl)c3)C(=O)N2C1 [PP2154] | 17.7 | A (a compound having 10 or more and less than 20 is denoted as A) | A (a compound having 10 or more and less than 20 is denoted as A) |
| CCO[C@@H]1C[C@H]2C(=O)NC3(CC(C)(C)C3)C(=O)N(C)[C@@H](C(CC)CC)C(=O)N(C)[C@H](C(=O)N(C)C)CC(=O)N(C)[C@@H](CC3CCC3)C(=O)N[C@@H]([C@@H](C)CC)C(=O)N(C)CC(=O)N(C)[C@H]3C/C=C\CCN(C3=O)[C@@H](Cc3ccc(C)cc3)C(=O)N(C)CC(=O)N[C@@H](CCc3ccc(C(F)(F)F)c(Cl)c3)C(=O)N2C1 [PP2156] | 20.6 | A (a compound having 10 or more and less than 20 is denoted as A) | AA (a compound having 20 or more is denoted as AA) |

More lines, in order of falling IC50 [2], values ahead:

| IC50 [2] [nM] | SMILES | HRAS /KRAS (HRAS wild-type protein) | NRAS /KRAS [1] |
| --- | --- | --- | --- |
| 58 | CCO[C@@H]1C[C@H]2C(=O)NC3(CC(C)(C)C3)C(=O)N(C)[C@@H](C(CC)CC)C(=O)N(C)[C@H](C(=O)N(C)C)CC(=O)N(C)[C@@H](C)C(=O)N[C@@H]([C@@H](C)CC)C(=O)N(C)CC(=O)N(C)[C@H]3C/C=C\CCN(C3=O)[C@@H](Cc3ccc(C)cc3)C(=O)N(C)CC(=O)N[C@@H](CCc3ccc(C(F)(F)F)c(Cl)c3)C(=O)N2C1 [PP2150] | A (a compound having 10 or more and less than 20 is denoted as A) | AA (a compound having 20 or more is denoted as AA) |
| 29.4 | CCO[C@@H]1C[C@H]2C(=O)NC3(CC(C)(C)C3)C(=O)N(C)[C@@H](C(CC)CC)C(=O)N(C)[C@H](C(=O)N3CCCC3)CC(=O)N(C)[C@@H](C)C(=O)N[C@@H]([C@@H](C)CC)C(=O)N(C)CC(=O)N(C)[C@H]3C/C=C\CCN(C3=O)[C@@H](Cc3ccc(C)cc3)C(=O)N(C)CC(=O)N[C@@H](CCc3ccc(C(F)(F)F)c(Cl)c3)C(=O)N2C1 [PP2152] | A (a compound having 10 or more and less than 20 is denoted as A) | AA (a compound having 20 or more is denoted as AA) |
| 23.3 | CCO[C@@H]1C[C@H]2C(=O)NC3(CC(C)(C)C3)C(=O)N(C)[C@@H](C(CC)CC)C(=O)N(C)[C@H](C(=O)N(C)C)CC(=O)N(C)[C@@H](CC3CCC3)C(=O)N[C@@H]([C@@H](C)CC)C(=O)N(C)CC(=O)N(C)[C@H]3C/C=C\CCN(C3=O)[C@@H](Cc3ccc(C)cc3)C(=O)N(C)CC(=O)N[C@@H](CCc3cc(F)c(C(F)(F)F)c(F)c3)C(=O)N2C1 [PP2151] | A (a compound having 10 or more and less than 20 is denoted as A) | A (a compound having 10 or more and less than 20 is denoted as A) |
| 10.7 | CCO[C@@H]1C[C@H]2C(=O)NC3(CC(C)(C)C3)C(=O)N(C)[C@@H](C(CC)CC)C(=O)N(C)[C@H](C(=O)N(C)C)CC(=O)N(C)[C@@H](CC3CC3)C(=O)N[C@@H]([C@@H](C)CC)C(=O)N(C)CC(=O)N(C)[C@H]3C/C=C\CCN(C3=O)[C@@H](Cc3ccc(C(F)(F)F)cc3)C(=O)N(C)CC(=O)N[C@@H](CCc3ccc(C(F)(F)F)c(OC)c3)C(=O)N2C1 [PP2155] | B (a compound having 3 or more and less than 10 is denoted as B) | A (a compound having 10 or more and less than 20 is denoted as A) |
